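Assay format: 96-well plates, 48-hour exposure. TGI marks complete inhibition of growth.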
Key:
Experiment in all cases: NCI-60 cell line screen, 48 h
[1] = system: SNB-78 CNS
[2] = system: OVCAR-4 ovarian
[3] = system: MOLT-4 leukemia
[4] = system: A549 NSCLC
[5] = system: LOX IMVI melanoma
[6] = system: HL-60(TB) leukemia
[7] = system: SNB-75 CNS
[8] = system: M14 melanoma
[9] = system: XF 498 CNS
[10] = system: U251 CNS
[11] = system: UACC-62 melanoma
[12] = system: OVCAR-8 ovarian
[13] = system: COLO 205 colon
[14] = system: K-562 leukemia
[15] = system: DMS 114 small cell lung
[16] = system: SK-MEL-2 melanoma
[17] = system: LXFL 529 NSCLC
[18] = system: CCRF-CEM leukemia
[19] = system: KM20L2 colon
[20] = system: RXF-631 renal
[21] = system: SK-MEL-5 melanoma
[22] = system: RPMI-8226 leukemia
[23] = system: UACC-257 melanoma
[24] = system: EKVX NSCLC
[25] = system: UO-31 renal
[26] = system: NCI-H23 lung
[27] = system: SN12C renal
[28] = system: SW-620 colon
[29] = system: SK-OV-3 ovarian
[30] = system: SF-539 CNS
[31] = system: NCI-H522 lung
[32] = system: 786-0 renal
[33] = system: MALME-3M melanoma
[34] = system: HCT-15 colon
[35] = system: DMS 273 small cell lung
[36] = system: SF-295 CNS
[37] = system: SF-268 CNS
[38] = system: SNB-19 CNS
[39] = system: DLD-1 colon
[40] = system: TK-10 renal
[41] = system: CAKI-1 renal
[42] = system: IGROV1 ovarian
[43] = system: HT29 colon
[44] = system: ACHN renal
[45] = system: RXF 393 renal
[46] = system: OVCAR-5 ovarian
[47] = system: KM12 colon
[48] = system: HCC-2998 colon
[49] = system: SK-MEL-28 melanoma
[50] = system: A498 renal
[51] = system: HOP-18 NSCLC
[52] = system: OVCAR-3 ovarian
[53] = system: HCT-116 colon
[54] = system: HOP-62 NSCLC
[55] = system: SR leukemia
[56] = system: NCI-H460 lung

COc1ccc2n[se]nc2c1 showed a TGI [1] greater than 100 µM, a TGI [2] greater than 100 µM and a TGI [3] greater than 100 µM. For the same compound, the TGI [4] was greater than 100 µM, the TGI [5] was greater than 100 µM and the TGI [6] was greater than 100 µM. It also gave a TGI [7] greater than 100 µM, a TGI [8] greater than 100 µM and a TGI [9] greater than 100 µM. For the same compound, the TGI [10] was greater than 100 µM, the TGI [11] was greater than 100 µM and the TGI [12] was greater than 100 µM. It also gave a TGI [13] greater than 100 µM, a TGI [14] greater than 100 µM and a TGI [15] greater than 100 µM. It also gave a TGI [16] greater than 100 µM, a TGI [17] greater than 100 µM and a TGI [18] greater than 100 µM. For the same compound, the TGI [19] was greater than 100 µM, the TGI [20] was greater than 100 µM and the TGI [21] was greater than 100 µM. The TGI [22] was greater than 100 µM, the TGI [23] was greater than 100 µM and the TGI [24] was greater than 100 µM. For the same compound, the TGI [25] was greater than 100 µM, the TGI [26] was greater than 100 µM and the TGI [27] was greater than 100 µM. The TGI [28] was greater than 100 µM, the TGI [29] was greater than 100 µM and the TGI [30] was 54.3 µM. The TGI [31] was greater than 100 µM, the TGI [32] was greater than 100 µM and the TGI [33] was greater than 100 µM. For the same compound, the TGI [34] was greater than 100 µM, the TGI [35] was greater than 100 µM and the TGI [36] was greater than 100 µM. For the same compound, the TGI [37] was greater than 100 µM, the TGI [38] was greater than 100 µM and the TGI [39] was greater than 100 µM. For the same compound, the TGI [40] was greater than 100 µM, the TGI [41] was greater than 100 µM and the TGI [42] was greater than 100 µM. For the same compound, the TGI [43] was greater than 100 µM, the TGI [44] was greater than 100 µM and the TGI [45] was greater than 100 µM. The TGI [46] was greater than 100 µM, the TGI [47] was greater than 100 µM and the TGI [48] was greater than 100 µM. It also gave a TGI [49] greater than 100 µM.

Compound CN(C)CC/C(=N\Nc1ccc([N+](=O)[O-])cc1)c1ccccc1 has a TGI [1] of 20 µM, a TGI [2] of 37.2 µM and a TGI [3] of 24.5 µM. The TGI [4] was 26.8 µM, the TGI [5] was 18.1 µM and the TGI [6] was 16.3 µM. The TGI [7] was 17.6 µM, the TGI [8] was 30.8 µM and the TGI [10] was 25.5 µM. For the same compound, the TGI [50] was 27.2 µM, the TGI [11] was 25.9 µM and the TGI [12] was 27.1 µM. The TGI [13] was 28.5 µM, the TGI [14] was 15.9 µM and the TGI [15] was 18 µM. The TGI [16] was 28.2 µM, the TGI [17] was 19.3 µM and the TGI [18] was 23.6 µM. For the same compound, the TGI [51] was 20.5 µM, the TGI [19] was 15.2 µM and the TGI [52] was 31.2 µM. The TGI [21] was 28.5 µM, the TGI [22] was 30.6 µM and the TGI [53] was 24 µM. For the same compound, the TGI [54] was 28.5 µM, the TGI [23] was 30.5 µM and the TGI [24] was 29.9 µM. For the same compound, the TGI [25] was 6.02 µM, the TGI [26] was 27.1 µM and the TGI [27] was 23.8 µM. For the same compound, the TGI [28] was 26.5 µM, the TGI [29] was 29.8 µM and the TGI [30] was 20.3 µM. For the same compound, the TGI [31] was 29.1 µM, the TGI [32] was 27.1 µM and the TGI [33] was 39.9 µM. It also gave a TGI [34] of 27.2 µM, a TGI [35] of 22.3 µM and a TGI [36] of 23.6 µM. For the same compound, the TGI [37] was 27.4 µM, the TGI [38] was 28.9 µM and the TGI [39] was 27.2 µM. For the same compound, the TGI [55] was 17.2 µM, the TGI [40] was 15.3 µM and the TGI [42] was 24.9 µM. The TGI [43] was 21.2 µM, the TGI [44] was 6.81 µM and the TGI [45] was 17.1 µM. For the same compound, the TGI [46] was 28.2 µM, the TGI [47] was 22.3 µM and the TGI [56] was 21.3 µM. The TGI [49] was 25.3 µM.

Source: PubChem BioAssay (NCI)
